Experiments:
Assay in all cases: relative viability (nuclei count vs DMSO), 5 days (fraction); higher = more cells survive
[1] = test system: ChaGo-K-1
Procedure, shortened: (§1)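 Relative viability was taken as the ratio of nuclei in treated wells to nuclei in vehicle wells. Lung cancer cell lines in 1536-well plates received compounds by pin tool one day after seeding, either one drug alone or a fixed anchor-drug dose plus five library-drug doses (not always all listed) in √10 steps. Nuclei were counted on 4× images after 5 days of treatment, and values are medians of duplicate plates.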

[2] = test system: LCLC-97TM1
Procedure, shortened: as §1

[3] = test system: NCI-H647
Procedure, shortened: as §1

[4] = test system: NCI-H661
Procedure, shortened: as §1

[5] = test system: COR-L 105
Procedure, shortened: as §1

[6] = test system: PC-14
Procedure, shortened: as §1

[7] = test system: NCI-H2087
Procedure, shortened: as §1

[8] = test system: NCI-H1915
Procedure, shortened: as §1

[9] = test system: LC-2-ad
Procedure, shortened: as §1

[10] = test system: NCI-H650
Procedure, shortened: as §1

[11] = test system: NCI-H23
Procedure, shortened: as §1

[12] = test system: H3255
Procedure, shortened: as §1

[13] = test system: NCI-H2347
Procedure, shortened: as §1

[14] = test system: NCI-H1666
Procedure, shortened: as §1

[15] = test system: 201T
Procedure, shortened: as §1

[16] = test system: NCI-H2126
Procedure, shortened: as §1

[17] = test system: NCI-H520
Procedure, shortened: as §1

[18] = test system: RERF-LC-KJ
Procedure, shortened: as §1

[19] = test system: HCC-827
Procedure, shortened: as §1

[20] = test system: HCC-78
Procedure, shortened: as §1

[21] = test system: NCI-H2405
Procedure, shortened: as §1

[22] = test system: EPLC-272H
Procedure, shortened: as §1

Nc1ccn([C@@H]2O[C@H](CO)[C@@H](O)[C@@H]2O)c(=O)n1 [Cytarabine] + O=C(CCCCCCC(=O)Nc1ccccc1)NO [Vorinostat] (partner 1 µM)
relative viability ([1]; first compound 0.005 µM): 0.673
relative viability ([1]; first compound 0.01581 µM): 0.649
relative viability ([1]; first compound 0.05 µM): 0.471
relative viability ([1]; first compound 0.1581 µM): 0.408
relative viability ([1]; first compound 0.5 µM): 0.288
relative viability ([2]; first compound 0.005 µM): 0.752
relative viability ([2]; first compound 0.01581 µM): 0.562
relative viability ([2]; first compound 0.05 µM): 0.166
relative viability ([2]; first compound 0.1581 µM): 0.275
relative viability ([2]; first compound 0.5 µM): 0.102
relative viability ([3]; first compound 0.005 µM): 0.284
relative viability ([3]; first compound 0.01581 µM): 0.294
relative viability ([3]; first compound 0.05 µM): 0.149
relative viability ([3]; first compound 0.1581 µM): 0.0878
relative viability ([3]; first compound 0.5 µM): 0.0778
relative viability ([4]; first compound 0.005 µM): 0.751
relative viability ([4]; first compound 0.01581 µM): 0.698
relative viability ([4]; first compound 0.05 µM): 0.6
relative viability ([4]; first compound 0.1581 µM): 0.513
relative viability ([4]; first compound 0.5 µM): 0.456
relative viability ([5]; first compound 0.005 µM): 0.816
relative viability ([5]; first compound 0.01581 µM): 0.79
relative viability ([5]; first compound 0.05 µM): 0.55
relative viability ([5]; first compound 0.1581 µM): 0.583
relative viability ([5]; first compound 0.5 µM): 0.418
relative viability ([6]; first compound 0.005 µM): 0.519
relative viability ([6]; first compound 0.01581 µM): 0.601
relative viability ([6]; first compound 0.05 µM): 0.617
relative viability ([6]; first compound 0.1581 µM): 0.154
relative viability ([6]; first compound 0.5 µM): 0.082
relative viability ([7]; first compound 0.005 µM): 0.416
relative viability ([7]; first compound 0.01581 µM): 0.961
relative viability ([7]; first compound 0.05 µM): 0.598
relative viability ([7]; first compound 0.1581 µM): 0.288
relative viability ([7]; first compound 0.5 µM): 0.308
relative viability ([8]; first compound 0.005 µM): 0.477
relative viability ([8]; first compound 0.01581 µM): 0.424
relative viability ([8]; first compound 0.05 µM): 0.375
relative viability ([8]; first compound 0.1581 µM): 0.318
relative viability ([8]; first compound 0.5 µM): 0.235
relative viability ([9]; first compound 0.005 µM): 0.766
relative viability ([9]; first compound 0.01581 µM): 0.691
relative viability ([9]; first compound 0.05 µM): 0.67
relative viability ([9]; first compound 0.1581 µM): 0.646
relative viability ([9]; first compound 0.5 µM): 0.436
relative viability ([10]; first compound 0.005 µM): 0.417
relative viability ([10]; first compound 0.01581 µM): 0.315
relative viability ([10]; first compound 0.05 µM): 0.212
relative viability ([10]; first compound 0.1581 µM): 0.136
relative viability ([10]; first compound 0.5 µM): 0.112
relative viability ([11]; first compound 0.005 µM): 0.65
relative viability ([11]; first compound 0.01581 µM): 0.511
relative viability ([11]; first compound 0.05 µM): 0.306
relative viability ([11]; first compound 0.1581 µM): 0.156
relative viability ([11]; first compound 0.5 µM): 0.122
relative viability ([12]; first compound 0.005 µM): 0.862
relative viability ([12]; first compound 0.01581 µM): 0.853
relative viability ([12]; first compound 0.05 µM): 0.655
relative viability ([12]; first compound 0.1581 µM): 0.608
relative viability ([12]; first compound 0.5 µM): 0.878
relative viability ([13]; first compound 0.005 µM): 0.531
relative viability ([13]; first compound 0.01581 µM): 0.586
relative viability ([13]; first compound 0.05 µM): 0.555
relative viability ([13]; first compound 0.1581 µM): 0.498
relative viability ([13]; first compound 0.5 µM): 0.409
relative viability ([14]; first compound 0.005 µM): 0.948
relative viability ([14]; first compound 0.01581 µM): 0.843
relative viability ([14]; first compound 0.05 µM): 0.768
relative viability ([14]; first compound 0.1581 µM): 0.733
relative viability ([14]; first compound 0.5 µM): 0.619
relative viability ([15]; first compound 0.005 µM): 0.978
relative viability ([15]; first compound 0.01581 µM): 1.03
relative viability ([15]; first compound 0.05 µM): 1
relative viability ([15]; first compound 0.1581 µM): 0.994
relative viability ([15]; first compound 0.5 µM): 0.937
relative viability ([16]; first compound 0.005 µM): 0.649
relative viability ([16]; first compound 0.01581 µM): 0.681
relative viability ([16]; first compound 0.05 µM): 0.448
relative viability ([16]; first compound 0.1581 µM): 0.593
relative viability ([16]; first compound 0.5 µM): 0.44
relative viability ([17]; first compound 0.005 µM): 0.636
relative viability ([17]; first compound 0.01581 µM): 0.668
relative viability ([17]; first compound 0.05 µM): 0.776
relative viability ([17]; first compound 0.1581 µM): 0.555
relative viability ([17]; first compound 0.5 µM): 0.502
relative viability ([18]; first compound 0.005 µM): 0.569
relative viability ([18]; first compound 0.01581 µM): 0.66
relative viability ([18]; first compound 0.05 µM): 0.513
relative viability ([18]; first compound 0.1581 µM): 0.474
relative viability ([18]; first compound 0.5 µM): 0.393
relative viability ([19]; first compound 0.005 µM): 0.539
relative viability ([19]; first compound 0.01581 µM): 0.331
relative viability ([19]; first compound 0.05 µM): 0.169
relative viability ([19]; first compound 0.1581 µM): 0.145
relative viability ([19]; first compound 0.5 µM): 0.141
relative viability ([20]; first compound 0.005 µM): 0.498
relative viability ([20]; first compound 0.01581 µM): 0.471
relative viability ([20]; first compound 0.05 µM): 0.402
relative viability ([20]; first compound 0.1581 µM): 0.348
relative viability ([20]; first compound 0.5 µM): 0.263
relative viability ([21]; first compound 0.005 µM): 1.02
relative viability ([21]; first compound 0.01581 µM): 0.748
relative viability ([21]; first compound 0.05 µM): 0.624
relative viability ([21]; first compound 0.1581 µM): 0.43
relative viability ([21]; first compound 0.5 µM): 0.374
relative viability ([22]; first compound 0.005 µM): 0.461
relative viability ([22]; first compound 0.01581 µM): 0.393
relative viability ([22]; first compound 0.05 µM): 0.398
relative viability ([22]; first compound 0.1581 µM): 0.174
relative viability ([22]; first compound 0.5 µM): 0.155
